Test results taken from PubChem BioAssay (NCI).
Values joined by “and” are separate entries in the source; they are usually repeats but may differ in a detail not shown here. Equal entries are not always repeated.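 Tested at 5 concentrations; 48 h exposure; 96-well plates; endpoints linearly interpolated, else capped at highest concentration. Abbreviation: GI50, concentration required for 50% inhibition of growth. The concentration for full growth arrest is given as TGI.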

Test system: OVCAR-3 ovarian
Experiment: NCI tumour cell line growth inhibition, 48 h

Row | SMILES | TGI [µM] | GI50 [µM]
1 | CC1(C)COC(C2(C)C(=O)C=C(c3ccccc3)c3ccccc32)=N1 (stereo not drawn) | > 100 | 
2 | O=C(Nc1ccn(CCO)c(=O)n1)c1ccccc1 | > 100 | 
3 | C#CCOc1cccc(-c2ncc3cc(NC(=O)CCl)ccc3n2)c1 | 3.79 | 1.93
4 | O=CCC1CCCCC1 | > 100 | 
5 | CCC12CCCN(Cc3ccccc3)C1c1c(n(C)c3ccccc13)CC2 (stereo not drawn) | 215 | 
6 | CSc1nc(=O)n(CCC#N)nc1SC | 32 | 
7 | Cc1cc(Nc2ccc(NC(=O)c3ccc(Nc4ccnc5ccccc45)cc3)cc2)nc(N)n1 | 4.26 | 1.43
8 | COC(=O)C1c2cc3c(cc2C(OC2OC(C)C(OC)C(C)(OC)C2OC)CC1(C)O)C(=O)c1c(O)cc2c(c1C3=O)OC1OC2(C)C(O)C([N+](C)(C)[O-])C1O (stereo not drawn) | > 32.3 | 
9 | CNCc1ccccc1-c1csc([C@@H](C)Nc2nc(C)nc3cc(OC)c(OC)cc23)c1 | 8.04 | 2.42
10 | Nc1nc(Cl)cc(NCCCCCCCCNc2cc(Cl)nc(N)n2)n1 | > 100 | 
11 | CC(C)N(C(=O)C12C3C4C1C1C4(C#N)C3C12C#N)C(C)C (stereo not drawn) | > 100 | 
12 | O=C(Nc1ccc2ncccc2c1)Nc1ccc2ncccc2c1 | > 100 | 
13 | CC(C)C(CCl)NC(=O)c1cccc(C(=O)N[C@H](CCl)C(C)C)n1 (stereo in doubt) | > 100 | 
14 | CCC(=O)CC(=O)CCC(=O)Nc1cc(C)ccc1C | > 100 | 
15 | C(=NCCN1CCOCC1)=NC1CCCCC1 | > 100 | 
16 | NC(N)=N/N=C/c1c(-c2ccsc2)nc2sccn12 | 21.2 | 8.8
17 | COC(=O)COc1ccccc1/C=C1\N=C(c2ccccc2)N(c2cc(C(F)(F)F)ccc2Cl)C1=O | 98.6 | 34
18 | CC(=O)OC1COC(Oc2c(C)c3c4c(c2O)[C@@H](C)CC[C@@H]4[C@@H](C)C[C@H]3C=C(C)C)C(O)C1OC(C)=O (stereo partly drawn) | 23.3 | 10.6
19 | CN1CC(=O)N2Cc3ccccc3-n3cccc3C2C1 (stereo not drawn) | > 100 | 
20 | NC(=S)N/N=C/C(=O)O | > 100 | 31.7
21 | Cc1ccc(SC2c3ccc(C)cc3Oc3nc(N)c(C#N)c(N)c32)cc1 (stereo not drawn) | 3.22 | 1.77
22 | CC/C=C\C[C@H](O)C/C=C1/C(=O)C(Cl)=C[C@@H]1C/C=C\CCCC(=O)OC | 1.88 | 0.525

Test system: OVCAR-5 ovarian
Experiment: NCI tumour cell line growth inhibition, 48 h

Row | SMILES | GI50 | TGI
23 | Clc1ccc2c(c1)[nH]c1c2nc2ccccn21 | 38.8 µM and 16.5 µM | > 100 µM and 30.1 µM
24 | CCOC(=O)c1cnc2c(ccc3[nH]n(C)nc32)c1=O |  | > 100 µM
25 | NC(=S)N/N=C(\CC1OC(=O)c2ccccc21)c1ccc(Cl)cc1 (stereo not drawn) |  | > 100 µM
26 | O=C(Nc1ccn(CCO)c(=O)n1)c1ccccc1 |  | > 100 µM
27 | O=CCC1CCCCC1 |  | > 100 µM
28 | CSc1nc(=O)n(CCC#N)nc1SC |  | > 100 µM
29 | Cc1cc(Nc2ccc(NC(=O)c3ccc(Nc4ccnc5ccccc45)cc3)cc2)nc(N)n1 | 3.4 µM | 37.5 µM
30 | COC(=O)C1c2cc3c(cc2C(OC2OC(C)C(OC)C(C)(OC)C2OC)CC1(C)O)C(=O)c1c(O)cc2c(c1C3=O)OC1OC2(C)C(O)C([N+](C)(C)[O-])C1O (stereo not drawn) |  | > 43.6 µM
31 | CNCc1ccccc1-c1csc([C@@H](C)Nc2nc(C)nc3cc(OC)c(OC)cc23)c1 | 3.29 µM | 13.6 µM
32 | CC(C)N(C(=O)C12C3C4C1C1C4(C#N)C3C12C#N)C(C)C (stereo not drawn) |  | > 100 µM
33 | O=C1CCC(Cl)=CC2CCCN12 (stereo not drawn) |  | > 100 µM
34 | O=C(Nc1ccc2ncccc2c1)Nc1ccc2ncccc2c1 |  | > 100 µM
35 | CC(C)C(CCl)NC(=O)c1cccc(C(=O)N[C@H](CCl)C(C)C)n1 (stereo in doubt) |  | > 100 µM
36 | C(=NCCN1CCOCC1)=NC1CCCCC1 |  | > 100 µM
37 | NC(N)=N/N=C/c1c(-c2ccsc2)nc2sccn12 | 16.6 µM | 30.3 µM
38 | COC(=O)COc1ccccc1/C=C1\N=C(c2ccccc2)N(c2cc(C(F)(F)F)ccc2Cl)C1=O | > 100 µM | > 100 µM
39 | CC(=O)OC1COC(Oc2c(C)c3c4c(c2O)[C@@H](C)CC[C@@H]4[C@@H](C)C[C@H]3C=C(C)C)C(O)C1OC(C)=O (stereo partly drawn) | 15.5 µM | 30.1 µM
40 | CO/N=C(/C)c1cccc(Nc2cc(-n3nnc4ccccc43)nc3ccccc23)c1 | 41.7 µM | > 100 µM
41 | CN1CC(=O)N2Cc3ccccc3-n3cccc3C2C1 (stereo not drawn) |  | > 100 µM
42 | NC(=S)N/N=C/C(=O)O | > 100 µM | > 100 µM
43 | Cc1ccc(SC2c3ccc(C)cc3Oc3nc(N)c(C#N)c(N)c32)cc1 (stereo not drawn) | 1.76 µM | 3.45 µM
44 | CC/C=C\C[C@H](O)C/C=C1/C(=O)C(Cl)=C[C@@H]1C/C=C\CCCC(=O)OC | 0.754 µM | 3.07 µM

Test system: SF-295 CNS
Experiment: NCI tumour cell line growth inhibition, 48 h

Row | SMILES | GI50 | TGI
45 | Clc1ccc2c(c1)[nH]c1c2nc2ccccn21 | > 100 µM and 15.7 µM | > 100 µM and 35.4 µM
46 | CCOC(=O)c1cnc2c(ccc3[nH]n(C)nc32)c1=O |  | > 100 µM
47 | NC(=S)N/N=C(\CC1OC(=O)c2ccccc21)c1ccc(Cl)cc1 (stereo not drawn) |  | > 100 µM
48 | COc1ccc2occ(CCC(=O)O)c2c1 |  | > 100 µM
49 | CC1(C)COC(C2(C)C(=O)C=C(c3ccccc3)c3ccccc32)=N1 (stereo not drawn) |  | > 100 µM
50 | O=C(Nc1ccn(CCO)c(=O)n1)c1ccccc1 |  | > 100 µM
51 | C#CCOc1cccc(-c2ncc3cc(NC(=O)CCl)ccc3n2)c1 | 3.65 µM | 17 µM
52 | O=CCC1CCCCC1 |  | > 100 µM
53 | CCC12CCCN(Cc3ccccc3)C1c1c(n(C)c3ccccc13)CC2 (stereo not drawn) |  | > 253 µM
54 | CSc1nc(=O)n(CCC#N)nc1SC |  | > 100 µM
55 | Cc1cc(Nc2ccc(NC(=O)c3ccc(Nc4ccnc5ccccc45)cc3)cc2)nc(N)n1 | 4.81 µM | 39.6 µM
56 | COC(=O)C1c2cc3c(cc2C(OC2OC(C)C(OC)C(C)(OC)C2OC)CC1(C)O)C(=O)c1c(O)cc2c(c1C3=O)OC1OC2(C)C(O)C([N+](C)(C)[O-])C1O (stereo not drawn) |  | > 42 µM
57 | CNCc1ccccc1-c1csc([C@@H](C)Nc2nc(C)nc3cc(OC)c(OC)cc23)c1 | 1.45 µM | 2.88 µM
58 | Nc1nc(Cl)cc(NCCCCCCCCNc2cc(Cl)nc(N)n2)n1 |  | 92.1 µM
59 | CC(C)N(C(=O)C12C3C4C1C1C4(C#N)C3C12C#N)C(C)C (stereo not drawn) |  | > 100 µM
60 | O=C(Nc1ccc2ncccc2c1)Nc1ccc2ncccc2c1 |  | > 100 µM
